According to the CheMixHub viscosity set:
± gives the uncertainty stated by the source.

Test: xn = mol fraction of the nth substance listed

CCCCCCCC + c1ccccc1
298.15 K, 101.33 kPa
Conditions | viscosity [mPa·s]
x1 = 0.04472 | 0.5829 ± 0.0053
x1 = 0.09184 | 0.5595 ± 0.0051
x1 = 0.1715 | 0.5352 ± 0.0049
x1 = 0.2954 | 0.5061 ± 0.0047
x1 = 0.4088 | 0.4934 ± 0.0046
x1 = 0.4907 | 0.4904 ± 0.0046
x1 = 0.5855 | 0.4924 ± 0.0046
x1 = 0.739 | 0.4929 ± 0.0046
x1 = 0.928 | 0.5124 ± 0.0048

CCCCCO + CCCCO
viscosity [mPa·s], 101.33 kPa
Conditions | x2 = 0.1315 | x2 = 0.278 | x2 = 0.4762 | x2 = 0.5662 | x2 = 0.8222 | x2 = 0.9381
293.15 K | 3.867 ± 0.11 | 3.7 ± 0.11 | 3.489 ± 0.1 | 3.392 ± 0.098 | 3.127 ± 0.09 | 3.013 ± 0.087
298.15 K | 3.353 ± 0.097 | 3.232 ± 0.094 | 3.038 ± 0.088 | 2.959 ± 0.086 | 2.738 ± 0.08 | 2.642 ± 0.077

ClC(Cl)=C(Cl)Cl + CCCCCCC
303.15 K, 101 kPa
Conditions | viscosity [mPa·s]
x1 = 0.196 | 0.442 ± 0.01
x1 = 0.3642 | 0.497 ± 0.01
x1 = 0.4421 | 0.529 ± 0.01
x1 = 0.4713 | 0.543 ± 0.01
x1 = 0.5272 | 0.568 ± 0.009
x1 = 0.6106 | 0.61 ± 0.009
x1 = 0.6939 | 0.653 ± 0.009
x1 = 0.7237 | 0.668 ± 0.009
x1 = 0.8091 | 0.714 ± 0.008
x1 = 0.9254 | 0.775 ± 0.008

CCCCCCCCCCCCCC + CCCCCCCCCCO
100 kPa, x1 = 0.3338
Conditions | viscosity [mPa·s]
298.2 K | 5.36 ± 0.33
308.2 K | 3.89 ± 0.24
318.2 K | 2.92 ± 0.18

C1CCC2CCCCC2C1 (stereo not drawn) + COC(C)(C)C
303.15 K, 101 kPa
Conditions | viscosity [mPa·s]
x2 = 0.1134 | 1.739
x2 = 0.184 | 1.547
x2 = 0.2577 | 1.367
x2 = 0.3906 | 1.089
x2 = 0.4774 | 0.935
x2 = 0.5234 | 0.863
x2 = 0.6441 | 0.694
x2 = 0.7771 | 0.543
x2 = 0.8937 | 0.431

CCCCCCCCCCCCCC[P+](CCCCCC)(CCCCCC)CCCCCC.N#C[N-]C#N + O
Conditions | viscosity [mPa·s]
303.11 K, 101 kPa, x2 = 0.198 | 284.5 ± 14

ClC(Cl)=C(Cl)Cl + CC(C)(C)O
303.15 K, 101.33 kPa
Conditions | viscosity [mPa·s]
x1 = 0.1027 | 2.16 ± 0.014
x1 = 0.2143 | 1.557 ± 0.01
x1 = 0.3299 | 1.249 ± 0.008
x1 = 0.4102 | 1.122 ± 0.008
x1 = 0.5188 | 1.006 ± 0.007
x1 = 0.6036 | 0.946 ± 0.006
x1 = 0.7072 | 0.895 ± 0.006
x1 = 0.8124 | 0.852 ± 0.006
x1 = 0.9075 | 0.821 ± 0.006

C1CCC2CCCCC2C1 (stereo not drawn) + C1CCCCC1
298.15 K, 101 kPa
Conditions | viscosity [mPa·s]
x1 = 0.1473 | 1.061 ± 0.014
x1 = 0.3151 | 1.26 ± 0.016
x1 = 0.5054 | 1.48 ± 0.019
x1 = 0.7334 | 1.77 ± 0.023

O=[N+]([O-])c1ccccc1 + CC(C)CO
viscosity [mPa·s], 101.33 kPa
Conditions | x1 = 0.063 | x1 = 0.1521 | x1 = 0.2051 | x1 = 0.2864 | x1 = 0.376 | x1 = 0.4746 | x1 = 0.6038 | x1 = 0.7066 | x1 = 0.8442
298.15 K | 2.804 ± 0.13 | 2.416 ± 0.11 | 2.228 ± 0.1 | 2.054 ± 0.094 | 1.884 ± 0.087 | 1.811 ± 0.084 | 1.755 ± 0.082 | 1.701 ± 0.08 | 1.679 ± 0.079
303.15 K | 2.423 ± 0.11 | 2.072 ± 0.095 | 1.956 ± 0.09 | 1.819 ± 0.084 | 1.677 ± 0.078 | 1.596 ± 0.075 | 1.538 ± 0.072 | 1.495 ± 0.071 | 1.517 ± 0.072

ClC(Cl)=C(Cl)Cl + c1ccccc1
Conditions | viscosity [mPa·s]
298.15 K, 101 kPa, x2 = 0.0876 | 0.8015 ± 0.0068
298.15 K, 101 kPa, x2 = 0.1609 | 0.771 ± 0.0066
298.15 K, 101 kPa, x2 = 0.3555 | 0.7018 ± 0.006
298.15 K, 101 kPa, x2 = 0.452 | 0.6743 ± 0.0058
298.15 K, 101 kPa, x2 = 0.6216 | 0.6351 ± 0.0055
298.15 K, 101 kPa, x2 = 0.6602 | 0.6286 ± 0.0054
298.15 K, 101 kPa, x2 = 0.708 | 0.6209 ± 0.0054
298.15 K, 101 kPa, x2 = 0.781 | 0.6115 ± 0.0053
298.15 K, 101 kPa, x2 = 0.8752 | 0.6029 ± 0.0052
298.15 K, 101 kPa, x2 = 0.9037 | 0.6011 ± 0.0052
303.15 K, 101.33 kPa, x1 = 0.1913 | 0.577 ± 0.006
303.15 K, 101.33 kPa, x1 = 0.2749 | 0.584 ± 0.006
303.15 K, 101.33 kPa, x1 = 0.3761 | 0.605 ± 0.006
303.15 K, 101.33 kPa, x1 = 0.4668 | 0.624 ± 0.006
303.15 K, 101.33 kPa, x1 = 0.5756 | 0.648 ± 0.006
303.15 K, 101.33 kPa, x1 = 0.6664 | 0.675 ± 0.007
303.15 K, 101.33 kPa, x1 = 0.7757 | 0.712 ± 0.007
303.15 K, 101.33 kPa, x1 = 0.8828 | 0.746 ± 0.007
